In data set [1] the test system is Carotid Vein Grafts. Description: Carotid vein grafts (femoral vein interposition, end-to-side anastomoses): percent stenoses of anastomoses by angiography. Format: in vivo, Dogs. The method, then:
The animal was heparinized (100 IU/kg body weight), and anticoagulated at the surgeon's discretion with additional heparin. The carotid artery was cross-clamped and transected. An interpositional graft with end-to-side anastamoses of the femoral vein to the carotid artery was performed. Anastomoses were identified with a surgical staple. Where indicated, the test or control articles were applied to a uniform thickness and allowed to harden. Grafts were placed in both carotid arteries, with the procedures done in series.
Image analysis was performed by a qualified vascular surgeon who also analyzed the data. REF Images from angiography were captured on a VHS tape. Digital images were captured from this tape and saved after which they were evaluated using NIH Image. The lumenal width of the native arterial segments proximal and distal to the vein grafts, and the proximal and distal anastomoses were measured. The percent stenoses of the anastomoses relative to the adjacent native arterial segment were reported.
Images were captured as described in section above, and were evaluated by NIH Image. The lumenal width of native arterial segments proximal and distal to the graft and the proximal and distal anastomoses were measured.

In data set [2] the test system is Balloon-injured Femoral Arteries. Briefly: Balloon-injured femoral arteries: lumenal width by angiography. The format is in vivo, Dogs. To be noted: 12 weeks. The protocol:
(§1) Balloon injury to the femoral arteries by three sequences of inflation and removal of a 4 Fr. Fogarty catheter generated 5 cm lesions in each femoral artery that were or were not treated with test/control articles. Injured areas were tagged with a staple. The insertion site was repaired and the animal was closed.
Angiography of the femoral arteries was performed at the termination of the experiment. Images were captured as described above and analyzed using NIH Image. Injured areas were identified by radio-opaque clips, and by anatomy. The lumenal widths of the arterial segments were measured just distal to the arteriotomy, and in the mid- and distal portions of the injured segments. The percent stenoses of the anastomoses relative to the adjacent native arterial segment were reported. The mean and least values were reported.
Images from angiography were captured and analyzed as described previously. The lumenal widths of the arterial segments were measured immediately distal to the arteriotomy, and in the mid- and distal portions of the injured segments.

Data set [3] shares this test system. Briefly: Balloon-injured femoral arteries: morphometric analysis of histology (media, intima, lumen area). Format: in vivo, Dogs. The protocol:
as §1
Carotid arteries were exposed and the healing response was evaluated. The grafts, including anastomoses, were fixed under pressure in situ, and were removed along with 4 cm of proximal and distal host vessel. Femoral arteries were exposed and the healing response was observed. The femoral arteries were then fixed under pressure and removed with distal and proximal host tissue. Femoral and carotid arteries were stored in 10% neutral-buffered formalin until analysis by histology. Specimens for histological evaluation were processed and stained with Hematoxalin and Eosin and with Mallory's Trichrome by IDEXX Veterinary Services, West Sacramento, Calif.
Histology of the femoral arteries was analyzed with Adobe Photoshop. Briefly, (1) the lumen-vessel interface, (2) the internal elastic lamina, and (3) the external elastic lamina were traced on digital images from H&E stained tissue with the greatest amount of hyperplasia. The intimal area was determined by subtracting the area encompassing […]. The medial area was determined by subtracting the area encompassing (2) from (3). The area was measured as (1).
Histology of sections from areas spanning proximal and distal regions of the balloon-injured femorals and of native tissue proximal to the arteriotomy were evaluated by morphometric analysis as described above.

The conditions of data set [4]: post-surgery.
Description: Animals received standard laboratory diet proscribed in QCOP B618, with supplements provided at the discretion of a veterinarian; water was available ad libitum.
Post-operative care was performed as described in QCOP B809, along with prophylactic administration of antibiotics (Sulfamethoxaxole and Trimethoprin); analgesics were supplied as described in QCOP B803. 7 days post surgery, animals received 250 mg/day aspirin. The wound site was debrided and temperature, heart rate and respiratory rates were monitored daily the week following surgery. Angiography of the carotid sites was performed following surgery and monthly thereafter. Intravascular ultrasound (IVUS) was used to examine the vein grafts in 10 animals at the 12 week endpoint of the study.
The mark [5] stands for this setting: angiography, 12 weeks, pooled Paclitaxel groups (4 dogs, 8 vessels).
[6] abbreviates: pooled Paclitaxel groups (4 dogs, 8 vessels).
[7] abbreviates: histology, 12 weeks, pooled Paclitaxel groups (4 dogs, 8 vessels).

Marks after values point to notes of the source that are not given here.

This note sets out measurements from patent US6991804B2, “Delivery systems for periadventitial delivery for treatment of restenosis and anastomotic intimal hyperplasia” (Edwards Lifesciences Corporation, priority 2000, dated 2006).

Consider `CC(=O)O[C@H]1C(=O)[C@@]2(C)[C@H]([C@H](OC(=O)c3ccccc3)[C@]3(O)C[C@H](OC(=O)[C@H](O)[C@@H](NC(=O)c4ccccc4)c4ccccc4)C(C)=C1C3(C)C)[C@]1(OC(C)=O)CO[C@@H]1C[C@@H]2O` [Paclitaxel ®, paclitaxel], for which the “Stenosis at anastomotic sites of carotid grafts (statement in words)” value in data set [1] (angiography at the 12 week endpoint) was “limited stenosis at the proximal and distal anastomotic sites”. Besides, in data set [1] (setting [5]), the “Per Cent Stenoses of Carotid Grafts ± Paclitaxel, Distal Anastomotic Site (mean ± s.d.)” value came to 1.1 ± 2.2% and the “Per Cent Stenoses of Carotid Grafts ± Paclitaxel, Proximal Anastomotic Site (mean ± s.d)” value came to 5.9 ± 6.5%. Also, the “Difference between control, vehicle and Paclitaxel treatment groups in femoral lumenal width (statement in words)” value in data set [2] is “no significant difference”. Besides, in data set [2] (setting [6]), the “Least Lumenal Width of Balloon-Injured Segments Relative to Native Vessel ± Paclitaxel (Mean ± s.d)” value turned out to be 1.32 ± 0.47 mm and the “Men Lumenal Width of Balloon-Injured Segments Relative to Native Vessel ± Paclitaxel (Mean ± s.d.)” value came out at 1.52 ± 0.24 mm. In data set [3] (setting [7]), the “Intima area of femoral artery in regions of intimal hyperplasia ± Paclitaxel (Mean ± s.d.)” value came out at 1.95 ± 1.00 mm^2, the “Intima: Media Ratio ± Paclitaxel” value turned out to be 0.56 ± 0.23, the “Lumen area of femoral artery in regions of intimal hyperplasia ± Paclitaxel (Mean ± s.d)” value is recorded as 4.98 ± 1.05* mm^2 and the “Media area of femoral artery in regions of intimal hyperplasia ± Paclitaxel (Mean ± s.d.)” value is reported as 3.38 ± 0.84 mm^2. Besides, in data set [3] (morphometric analysis of histology, femoral sections), the “Change in intimal: medial ratio (statement in words)” value is “absence of changes”. For the same molecule, the “Larger lumen width versus no Paclitaxel” value in data set [3] (morphometric analysis of histology, femoral sections with largest stenotic response, p</=0.06) is 44%. Moreover, the “Subcutaneous hematomas at the carotid site (animals affected/animals)” value in data set [4] (lesions resolved with time) was 4/8. Also, the “Hematoma at the femoral site (animals affected/animals)” value in data set [4] (reduced in size with time and healed well) is reported as 2/8.
